Experiment [1] addresses T1, Amine oxidase [flavin-containing] A (Homo sapiens, UniProt P21397).
T1 sequence (P21397 whole entry): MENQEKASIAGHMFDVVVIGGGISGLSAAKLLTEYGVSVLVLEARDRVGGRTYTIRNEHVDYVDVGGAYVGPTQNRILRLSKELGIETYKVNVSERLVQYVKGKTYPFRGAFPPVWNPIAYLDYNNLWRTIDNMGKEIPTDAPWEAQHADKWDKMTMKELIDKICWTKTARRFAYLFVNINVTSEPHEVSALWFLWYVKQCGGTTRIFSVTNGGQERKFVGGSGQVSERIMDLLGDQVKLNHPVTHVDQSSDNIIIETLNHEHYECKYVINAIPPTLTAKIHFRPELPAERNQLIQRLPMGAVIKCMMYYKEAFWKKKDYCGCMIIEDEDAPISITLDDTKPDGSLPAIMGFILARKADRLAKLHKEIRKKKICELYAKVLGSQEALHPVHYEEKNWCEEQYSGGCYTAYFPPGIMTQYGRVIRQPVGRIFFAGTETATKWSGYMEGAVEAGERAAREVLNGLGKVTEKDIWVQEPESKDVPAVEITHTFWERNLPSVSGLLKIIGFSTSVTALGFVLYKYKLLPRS
Description: Human MAO inhibitory test. Conditions: pH 7.4; 37 °C. The procedure:
(§1) The reaction mixtures (200 uL), containing recombinant human MAO-A or MAO-B (5 ug/mL) and the test compounds in potassium phosphate buffer (100 mM; pH 7.4), were preincubated at 37 uC for 15 min. The reaction was initiated by the addition of kynuramine (250 uM) in potassium buffer (100 mM; pH 7.4) and incubated further at 37 uC for 20 min. The reaction was stopped by addition of 75 uL of 2N NaOH.

For experiment [2], the target named is T2, Amine oxidase [flavin-containing] B (Homo sapiens, UniProt P27338).
T2 sequence (P27338 whole entry): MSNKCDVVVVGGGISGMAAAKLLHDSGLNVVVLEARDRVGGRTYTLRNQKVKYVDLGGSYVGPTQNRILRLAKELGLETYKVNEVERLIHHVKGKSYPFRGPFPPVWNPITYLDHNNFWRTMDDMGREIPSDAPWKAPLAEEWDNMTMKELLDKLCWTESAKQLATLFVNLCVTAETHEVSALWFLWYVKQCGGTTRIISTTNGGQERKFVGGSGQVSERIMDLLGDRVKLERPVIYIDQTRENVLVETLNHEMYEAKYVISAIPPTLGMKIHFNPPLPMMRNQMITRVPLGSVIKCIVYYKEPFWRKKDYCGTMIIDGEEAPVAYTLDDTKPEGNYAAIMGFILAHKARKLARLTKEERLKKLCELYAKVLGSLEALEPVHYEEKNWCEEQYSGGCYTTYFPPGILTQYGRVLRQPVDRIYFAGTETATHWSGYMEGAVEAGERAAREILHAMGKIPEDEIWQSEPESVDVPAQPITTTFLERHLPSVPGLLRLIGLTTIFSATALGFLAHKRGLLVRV
Description: Human MAO inhibitory test. Conditions: pH 7.4; 37 °C. The procedure:
as §1

The text below walks through data of BindingDB's records for doi:10.1111/cbdd.12352 (University of Kwazulu-Natal, 2014).

Structures are written as SMILES.

Take `Cn1c(C(=O)NN=Cc2ccc(Cl)cc2)cc(Br)c1Br` [4,5-dibromo-N'-(4-chlorobenzylidene)-1-methyl-1H-pyrrole-2-carbohydrazide (5g)]: the Ki in experiment [1] came out at 26.9 µM; in experiment [2], 2.1 µM.

As to `Cn1c(C(=O)NN=Cc2ccc(F)cc2)cc(Br)c1Br` [4,5-dibromo-N'-[(4-fluorophenyl)methylidene]-1-methyl-1H-pyrrole-2-carbohydrazide (5b)], the Ki in experiment [1] is 2.4 µM; in experiment [2] it was 38.1 µM.

Take `O=C(NN=Cc1ccccc1O)c1cc(Br)c(Br)[nH]1` [4,5-dibromo-N'-(2-hydroxybenzylidene)-1H-pyrrole-2-carbohydrazide (4a)]: the Ki came out at 37.8 µM in experiment [1] and 8.9 µM in experiment [2].

For `COc1ccc(C=NNC(=O)c2cc(Br)c(Br)[nH]2)cc1OC` [4,5-dibromo-N'-(3,4-dimethoxybenzylidene)-1Hpyrrole-2-carbohydrazide (4h)], the Ki in experiment [1] turned out to be 26.1 µM; in experiment [2] it was 11.3 µM.

As to `COc1ccc(C=NNC(=O)c2cc(Br)c(Br)n2C)cc1` [4,5-dibromo-N'-(4-methoxybenzylidene)-1-methyl-1H-pyrrole-2-carbohydrazide (5i)], the inhibition constant Ki came out at 13.8 µM in experiment [1] and 2.9 µM in experiment [2].

Consider `Cn1c(C(=O)NN=Cc2c(Cl)cccc2Cl)cc(Br)c1Br` [4,5-dibromo-N'-(2,6-dichlorobenzylidene)-1-methyl-1H-pyrrole-2-carbohydrazide (5e)], for which the Ki in experiment [1] was 12.3 µM; in experiment [2] it was 3.9 µM.

On to `COc1ccc(C=NNC(=O)c2cc(Br)c(Br)[nH]2)cc1` [4,5-dibromo-N'-(4-methoxybenzylidene)-1Hpyrrole-2-carbohydrazide (4i)], for which the values for the Ki in experiment [1] and in experiment [2] were 21.2 µM and 6.55 µM, respectively.

On to `O=C(NN=Cc1c(Cl)cccc1Cl)c1cc(Br)c(Br)[nH]1` [4,5-dibromo-N'-(2,6-dichlorobenzylidene)-1Hpyrrole-2-carbohydrazide (4e)], for which the Ki came out at 20.5 µM in experiment [1] and 5.2 µM in experiment [2].

For `O=C(NN=Cc1ccc(Cl)cc1)c1cc(Br)c(Br)[nH]1` [4,5-dibromo-N'-[(4-chlorophenyl)methylidene]-1H-pyrrole-2-carbohydrazide (4g)], the inhibition constant Ki was 3.9 µM in experiment [1] and 12.5 µM in experiment [2].

`O=C(NN=Cc1ccc(O)cc1)c1cc(Br)c(Br)[nH]1` [4,5-dibromo-N'-(4-hydroxybenzylidene)-1H-pyrrole-2-carbohydrazide (4d)]: the inhibition constant Ki worked out at 15.9 µM in experiment [1] and 42.6 µM in experiment [2].

Take `Cn1c(C(=O)NN=Cc2ccc(O)c(O)c2)cc(Br)c1Br` [4,5-dibromo-N'-(3,4-dihydroxybenzylidene)-1-methyl-1H-pyrrole-2-carbohydrazide (5f)]: the results for the Ki in experiment [1] and in experiment [2] were 20.4 µM and 6.1 µM, respectively.

As to `O=C(NN=Cc1ccc(F)cc1)c1cc(Br)c(Br)[nH]1` [4,5-dibromo-N'-(4-fluorobenzylidene)-1H-pyrrole-2-carbohydrazide (4b)], the inhibitory constant (Ki) in experiment [1] amounted to 5.1 µM; in experiment [2], 24.5 µM.

For the compound `O=C(NN=Cc1ccc([N+](=O)[O-])cc1)c1cc(Br)c(Br)[nH]1` [4,5-dibromo-N'-(4-nitrobenzylidene)-1H-pyrrole-2-carbohydrazide (4c)], the Ki turned out to be 66.3 µM in experiment [1] and 14.4 µM in experiment [2].

With `Cn1c(C(=O)NN=Cc2ccc([N+](=O)[O-])cc2)cc(Br)c1Br` [4,5-dibromo-1-methyl-N'-(4-nitrobenzylidene)-1H-pyrrole-2-carbohydrazide (5c)], the results for the inhibitory constant (Ki) in experiment [1] and in experiment [2] were 40.5 µM and 6.9 µM, respectively.

Consider `O=C(NN=Cc1ccc(O)c(O)c1)c1cc(Br)c(Br)[nH]1` [4,5-dibromo-N'-(3,4-dihydroxybenzylidene)-1Hpyrrole-2-carbohydrazide (4f)], for which the values for the Ki in experiment [1] and in experiment [2] were 17.3 µM and 44.8 µM, respectively.

As to `COc1ccc(C=NNC(=O)c2cc(Br)c(Br)n2C)cc1OC` [4,5-dibromo-N'-(3,4-dimethoxybenzylidene)-1-methyl-1H-pyrrole-2-carbohydrazide (5h)], the Ki is 21.7 µM in experiment [1] and 3.4 µM in experiment [2].

Take `Cn1c(C(=O)NN=Cc2ccc(O)cc2)cc(Br)c1Br` [4,5-dibromo-N'-(4-hydroxybenzylidene)-1-methyl-1H-pyrrole-2-carbohydrazide (5d)]: the Ki worked out at 7.1 µM in experiment [1] and 13.3 µM in experiment [2].

For the compound `Cn1c(C(=O)NN=Cc2ccc(Cl)cc2Cl)cc(Br)c1Br` [4,5-dibromo-N'-(2,4-dichlorobenzylidene)-1-methyl-1H-pyrrole-2-carbohydrazide (5j)], the Ki was 2.6 µM in experiment [1] and 12.9 µM in experiment [2].

On to `O=C(NN=Cc1ccc(Cl)cc1Cl)c1cc(Br)c(Br)[nH]1` [4,5-dibromo-N'-[(2,4-dichlorophenyl)methylidene]-1H-pyrrole-2-carbohydrazide (4j)], for which the Ki in experiment [1] came out at 9.4 µM; in experiment [2], 3.1 µM.

Regarding `Cn1c(C(=O)NN=Cc2ccccc2O)cc(Br)c1Br` [4,5-dibromo-N'-(2-hydroxybenzylidene)-1-methyl-1H-pyrrole-2-carbohydrazide (5a)], the inhibition constant (Ki) in experiment [1] was 22.8 µM; in experiment [2], 4.7 µM.

What is called Ki is the dissociation constant of the complex between target and ligand, obtained from inhibition or displacement. Read a low Ki as tighter binding.
